The values that follow come from patent US9073830B2 (Hyundai Pharm Co., Ltd., priority 2011, dated 2015).

Where only a bound is given, the exact number is not on record here.

The target in one experiment is T1, human 11β-HSD1 (Homo sapiens, UniProt P28845).
T1 construct: 100 ug/ml human/mouse liver microsomes; from tissue; host or cells: human liver microsomes
The experiment is described as follows: Enzyme activity analysis on human 11β-HSD1 (HTRF cortisol, liver microsomes). It counts as biochemical. The conditions noted are these: first value of cell. The method, boiled down: (§1)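 Cortisol generated by mouse or human liver microsome 11β-HSD1 during 2 h at 37° C., measured by HTRF competition (cryptate anti-cortisol antibody, d2-cortisol, 2 h room temperature) against a cortisol standard curve. IC50 from percent inhibition versus no-compound control.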

A further experiment addresses T2, mouse 11β-HSD1 (Mus musculus, UniProt P50172).
T2 construct: 100 ug/ml human/mouse liver microsomes; from tissue; host or cells: mouse liver microsomes
The experiment is described as follows: Enzyme activity analysis on mouse 11β-HSD1 (HTRF cortisol, liver microsomes). It counts as biochemical. The conditions noted are these: second value of cell. The method, boiled down:
as §1
A general note: In TR-FRET formats the signal depends on donor and acceptor labels being close together.

T1 sequence (P28845 whole entry): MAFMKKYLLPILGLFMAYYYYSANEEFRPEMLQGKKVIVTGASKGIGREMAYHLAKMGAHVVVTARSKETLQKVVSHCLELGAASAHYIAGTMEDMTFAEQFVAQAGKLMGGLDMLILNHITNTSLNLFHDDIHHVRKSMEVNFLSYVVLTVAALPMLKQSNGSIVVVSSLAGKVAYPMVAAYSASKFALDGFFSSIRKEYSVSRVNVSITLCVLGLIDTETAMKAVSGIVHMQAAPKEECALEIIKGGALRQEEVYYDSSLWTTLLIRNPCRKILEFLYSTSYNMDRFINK
T2 sequence (P50172 whole entry): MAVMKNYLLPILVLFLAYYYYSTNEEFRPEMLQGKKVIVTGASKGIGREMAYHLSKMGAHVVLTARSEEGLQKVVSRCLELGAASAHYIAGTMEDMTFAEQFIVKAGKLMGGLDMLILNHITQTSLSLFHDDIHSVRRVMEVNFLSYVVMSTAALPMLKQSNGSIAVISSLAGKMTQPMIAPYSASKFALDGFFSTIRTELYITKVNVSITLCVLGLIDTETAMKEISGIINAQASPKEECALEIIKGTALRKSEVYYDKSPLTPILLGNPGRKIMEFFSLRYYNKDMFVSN

On to `Cc1ccc(F)cc1S(=O)(=O)NC1(C(=O)NC2C3CC4CC2CC(C(N)=O)(C4)C3)CCC1` (stereo not shown) [compound 165, N-4-(1-(2-methyl-5-fluorophenylsulfonamido)cyclobutanecarboxyamido)adamantane-1-carboxyamide], for which the IC50 (as a rule, the concentration that gives 50% inhibition) was 0.101 µM at human 11β-HSD1 and 0.29 µM against mouse 11β-HSD1.

Consider `CC(C)(NS(=O)(=O)c1ccc(Cl)c([N+](=O)[O-])c1)C(=O)NC1C2CC3CC(C2)CC1C3` (stereo not shown) [compound 61, N-(adamantane-2-yl)-2-methyl-2-(4-chloro-3-nitrophenylsulfonamido)propanamide], for which the IC50 against human 11β-HSD1 and against mouse 11β-HSD1 was > 2.5 µM throughout.

`Cc1ccccc1S(=O)(=O)N(C)C(C)(C)C(=O)NC1C2CC3CC1CC(C(N)=O)(C3)C2` (stereo not shown) [compound 196]: the IC50 on human 11β-HSD1 worked out at 0.003 µM; on mouse 11β-HSD1, 0.005 µM.

Regarding `NC(=O)C12CC3CC(C1)C(NC(=O)C1(NS(=O)(=O)c4ccccc4[N+](=O)[O-])CCCCC1)C(C3)C2` (stereo not shown) [compound 184, N-4-(1-(2-nitrophenylsulfonamido)cyclohexanecarboxyamido)adamantane-1-carboxyamide], the IC50 against human 11β-HSD1 was found to be 0.005 µM; at mouse 11β-HSD1, 0.104 µM.

Take `CN(C1(C(=O)NC2C3CC4CC2CC(C(N)=O)(C4)C3)CCC1)S(=O)(=O)c1ccccc1[N+](=O)[O-]` (stereo not shown) [compound 199, N-4-(1-(N-methyl-2-nitrophenylsulfonamido)cyclobutanecarboxyamido)adamantane-1-carboxyamide]: the IC50 was 0.004 µM at human 11β-HSD1 and 0.016 µM on mouse 11β-HSD1.

For `Cc1ccccc1S(=O)(=O)NC1(C(=O)NC2C3CC4CC2CC(C(N)=O)(C4)C3)CCC1` (stereo not shown) [compound 156, N-4-(1-(2-methylphenylsulfonamido)cyclobutanecarboxyamido)adamantane-1-carboxyamide], the IC50 against human 11β-HSD1 came out at 0.046 µM; at mouse 11β-HSD1, 0.138 µM.

Consider `NC(=O)C12CC3CC(C1)C(NC(=O)C1(NS(=O)(=O)c4cccc5cccnc45)CCCC1)C(C3)C2` (stereo not shown) [compound 168, N-4-(1-(quinoline-8-sulfonamido)cyclopentanecarboxyamido)adamantane-1-carboxyamide], for which the values for the IC50 against human 11β-HSD1 and on mouse 11β-HSD1 were 0.022 µM and 0.007 µM, respectively.

As to “N-4-(2-methoxy-6-fluoro-N-ethylphenylsulfonamido)-2-methylpropanamido)adamantane-1-carboxyamide [compound 214]”, the figures for the IC50 at human 11β-HSD1 and against mouse 11β-HSD1 were 0.012 µM and 0.006 µM, respectively.

In the case of `CCN(C(C)(C)C(=O)NC1C2CC3CC1CC(C(N)=O)(C3)C2)S(=O)(=O)c1ccccc1Cl` (stereo not shown) [compound 217], the values for the concentration for half-maximal inhibition (IC50) against human 11β-HSD1 and against mouse 11β-HSD1 were 0.004 µM and 0.098 µM, respectively.

Consider `CC(C)(NS(=O)(=O)c1cc(F)ccc1F)C(=O)NC1C2CC3CC1CC(C(N)=O)(C3)C2` (stereo not shown) [compound 120], for which the IC50 is 0.051 µM against human 11β-HSD1 and 0.453 µM on mouse 11β-HSD1.

Regarding `CC(C)(NS(=O)(=O)c1ccccc1C#N)C(=O)NC1C2CC3CC1CC(C(N)=O)(C3)C2` (stereo not shown) [compound 130, 4-[2-(2-cyano-benzenesulfonylamino)-2-methyl-propionylamino]-adamantane-1-carboxylic acid amide], the IC50 on human 11β-HSD1 came out at 0.078 µM; against mouse 11β-HSD1, 0.405 µM.

In the case of `CC(C)(NS(=O)(=O)c1ccc(Cl)cc1Cl)C(=O)NC1C2CC3CC1CC(O)(C3)C2` (stereo not shown) [compound 81, N-(5-hydroxyadamantane-2-yl)-2-methyl-2-(2,4-dichlorophenylsulfonamido)propanamide], the IC50 against human 11β-HSD1 is 0.03 µM; against mouse 11β-HSD1 it was 0.221 µM.

Take `CC(C)(NS(=O)(=O)c1cccc(Cl)c1F)C(=O)NC1C2CC3CC1CC(C(N)=O)(C3)C2` (stereo not shown) [compound 102, N-4-(2-(2-fluoro-3-chlorophenylsulfonamido)-2-methylpropanamido)adamantane-1-carboxyamide]: the half-maximal inhibitory concentration (IC50) at human 11β-HSD1 turned out to be 0.02 µM; at mouse 11β-HSD1, 0.037 µM.

As for `CC(C)(NS(=O)(=O)Cc1ccc(Cl)cc1)C(=O)NC1C2CC3CC(C2)CC1C3` (stereo not shown) [compound 33, N-(adamantane-2-yl)-2-methyl-2-((4-chlorophenyl)methylsulfonamido)propanamide], the IC50 is 0.065 µM at human 11β-HSD1 and 1.67 µM on mouse 11β-HSD1.

In the case of `CC(C)(NS(=O)(=O)c1ccc([N+](=O)[O-])cc1)C(=O)NC1C2CC3CC1CC(O)(C3)C2` (stereo not shown) [compound 78, N-(5-hydroxyadamantane-2-yl)-2-methyl-2-(4-nitrophenylsulfonamido)propanamide], the IC50 at human 11β-HSD1 is 0.692 µM; on mouse 11β-HSD1 it was 1.21 µM.

With `CC(C)(NS(=O)(=O)c1ccccc1Cl)C(=O)NC1C2CC3CC(C2)CC1C3` (stereo not shown) [compound 6, N-(adamantane-2-yl)-2-methyl-2-(2-chlorophenylsulfonamido)propanamide], the concentration for half-maximal inhibition (IC50) on human 11β-HSD1 amounted to 0.02 µM; on mouse 11β-HSD1, 0.04 µM.

On to `NC(=O)C12CC3CC(C1)C(NC(=O)C1(NS(=O)(=O)c4ccccc4Br)CC1)C(C3)C2` (stereo not shown) [compound 131, N-4-(1-(2-bromophenylsulfonamido)cyclopropanecarboxyamido)adamantane-1-carboxyamide], for which the IC50 turned out to be 0.008 µM at human 11β-HSD1 and 0.048 µM against mouse 11β-HSD1.

For the compound `CC(C)(NS(=O)(=O)c1cccc(F)c1)C(=O)NC1C2CC3CC(C2)CC1C3` (stereo not shown) [compound 30, N-(adamantane-2-yl)-2-methyl-2-(3-fluorophenylsulfonamido)propanamide], the concentration for half-maximal inhibition (IC50) was determined as 0.192 µM at human 11β-HSD1 and 0.462 µM against mouse 11β-HSD1.

`Cc1c(Cl)cccc1S(=O)(=O)N(C)C(C)(C)C(=O)NC1C2CC3CC1CC(C(N)=O)(C3)C2` (stereo not shown) [compound 191, N-4-(2-(2-methyl-3-chloro-N-methylphenylsulfonamido)-2-methylpropanamido)adamantane-1-carboxyamide]: the IC50 is 0.009 µM at human 11β-HSD1 and 0.006 µM at mouse 11β-HSD1.

Consider `CC(C)(NS(=O)(=O)c1ccccc1N)C(=O)NC1C2CC3CC1CC(C(N)=O)(C3)C2` (stereo not shown) [compound 219, N-4-(2-(2-aminophenylsulfonamido)-2-methylpropanamido)adamantane-1-carboxyamide], for which the IC50 on human 11β-HSD1 worked out at 0.085 µM; against mouse 11β-HSD1, 0.117 µM.

As for `CC(C)(NS(=O)(=O)c1ccc(Cl)cc1F)C(=O)NC1C2CC3CC(C2)CC1C3` (stereo not shown) [compound 31, N-(adamantane-2-yl)-2-methyl-2-(4-chloro-2-fluorophenylsulfonamido)propanamide], the values for the IC50 against human 11β-HSD1 and against mouse 11β-HSD1 were 0.409 µM and 1.06 µM, respectively.

On to `NC(=O)C12CC3CC(C1)C(NC(=O)C1(NS(=O)(=O)c4ccccc4Br)CCCC1)C(C3)C2` (stereo not shown) [compound 174, N-4-(1-(2-bromophenylsulfonamido)cyclopentanecarboxyamido)adamantane-1-carboxyamide], for which the figures for the IC50 against human 11β-HSD1 and against mouse 11β-HSD1 were 0.017 µM and 0.015 µM, respectively.

For `CN(C(C)(C)C(=O)NC1C2CC3CC1CC(C(N)=O)(C3)C2)S(=O)(=O)c1ccccc1N` (stereo not shown) [compound 223, N-4-(2-(2-amino-N-methylphenylsulfonamido)-2-methylpropanamido)adamantane-1-carboxyamide], the results for the IC50 against human 11β-HSD1 and against mouse 11β-HSD1 were 0.011 µM and 0.023 µM, respectively.

Consider `CC(C)(NS(=O)(=O)c1cccnc1Cl)C(=O)NC1C2CC3CC(C2)CC1C3` (stereo not shown) [compound 50, N-(adamantane-2-yl)-2-methyl-2-(2-chloropyridine-3-sulfonamido)propanamide], for which the half-maximal inhibitory concentration (IC50) at human 11β-HSD1 was determined as 0.105 µM; at mouse 11β-HSD1, 0.292 µM.

Turning to `Cc1c(Cl)cccc1S(=O)(=O)N(C)C(C)(C)C(=O)NC1C2CC3CC(C2)CC1C3` (stereo not shown) [compound 200, N-(adamantane-2-yl)-2-(3-chloro-2-methyl-N-methylphenylsulfonamido)-2-methylpropanamide], the IC50 turned out to be 0.023 µM against human 11β-HSD1 and 0.143 µM at mouse 11β-HSD1.

In the case of `Cc1ccccc1S(=O)(=O)NC1(C(=O)NC2C3CC4CC2CC(C(N)=O)(C4)C3)CCCC1` (stereo not shown) [compound 169, N-4-(1-(2-methylphenylsulfonamido)cyclopentanecarboxyamido)adamantane-1-carboxyamide], the IC50 against human 11β-HSD1 was found to be 0.03 µM; at mouse 11β-HSD1, 0.049 µM.

For the compound `CC(C)(NS(=O)(=O)c1ccc(OC(F)F)cc1)C(=O)NC1C2CC3CC1CC(C(N)=O)(C3)C2` (stereo not shown) [compound 93, N-4-(2-(4-difluoromethoxyphenylsulfonamido)-2-methylpropanamido)adamantane-1-carboxyamide], the half-inhibitory concentration (IC50) against human 11β-HSD1 turned out to be 0.153 µM; on mouse 11β-HSD1, 0.571 µM.

As for `O=C(NC1C2CC3CC(C2)CC1C3)C1(NS(=O)(=O)c2ccccc2Br)CCC1` (stereo not shown) [compound 138, N-(adamantane-2-yl)-1-(2-bromophenylsulfonamido)cyclobutanecarboxyamide], the concentration for half-maximal inhibition (IC50) against human 11β-HSD1 is 0.113 µM; against mouse 11β-HSD1, 0.806 µM.

`CC(C)(NS(=O)(=O)c1ccccc1Cl)C(=O)NC1C2CC3CC1CC(C(=O)NCCO)(C3)C2` (stereo not shown) [compound 231, 4-[2-(2-chloro-benzenesulfonylamino)-2-methyl-propionylamino]-adamantane-1-carboxylic acid ethanolamide]: the IC50 against human 11β-HSD1 and against mouse 11β-HSD1 was > 2.5 µM each time.

For the compound `CCN(C(C)(C)C(=O)NC1C2CC3CC1CC(C(N)=O)(C3)C2)S(=O)(=O)c1ccccc1C` (stereo not shown) [compound 209, N-4-(2-(2-methyl-N-ethylphenylsulfonamido)-2-methylpropanamido)adamantane-1-carboxyamide], the values for the IC50 on human 11β-HSD1 and at mouse 11β-HSD1 were 0.008 µM and 0.182 µM, respectively.

In the case of `COc1ccc(S(=O)(=O)NC2(C(=O)NC3C4CC5CC3CC(C(N)=O)(C5)C4)CCC2)cc1F` (stereo not shown) [compound 154, N-4-(1-(3-fluoro-4-methoxyphenylsulfonamido)cyclobutanecarboxyamido)adamantane-1-carboxyamide], the half-inhibitory concentration (IC50) at human 11β-HSD1 is 1.63 µM; against mouse 11β-HSD1, 0.565 µM.

As to `COc1cc([N+](=O)[O-])ccc1S(=O)(=O)NC(C)(C)C(=O)NC1C2CC3CC1CC(C(N)=O)(C3)C2` (stereo not shown) [compound 128], the IC50 at human 11β-HSD1 turned out to be 0.076 µM; on mouse 11β-HSD1, 0.22 µM.
